The text below walks through data of article PMC4352194, “Physicochemical and Biological Properties of Oxovanadium(IV), Cobalt(II) and Nickel(II) Complexes with Oxydiacetate Anions” (Biological Trace Element Research, 2014).

Data set [1] in a line: Potentiometric titration: stability constants of the complexes. Type of data set: physicochemical. Here is the method:
Potentiometric titrations were performed in a 30-mL thermostated (298.15 ± 0.10 K) cell using the Cerko Lab System microtitration unit fitted with a 5-mL Hamilton’s syringe, a pH combined electrode (Schott–BlueLine 16 pH type) and a self-made measuring cell equipped with a magnetic stirrer. The temperature was controlled using the Lauda E100 circulation thermostat. In aqueous solutions, the electrode was calibrated according to IUPAC recommendations. In binary systems (10–50 % v/v DMSO:H2O), the electrode calibration was performed by the Gran’s method using the GLEE program. For this purpose, the HClO4 solution was titrated with tetrabutylammonium hydroxide (Bu4NOH) solution both at the same mole fraction of organic solvent (10–50 (v/v%) DMSO). The syringe was calibrated by a weight method. The double distilled water of conductivity approximately 0.18 μS/cm was used throughout for the preparation of aqueous solutions. Other reagents used in the experiments were purchased from Sigma-Aldrich. They were as follows: VOSO4 (≥99.99 % trace metals basis), Co(NO3)2·6H2O (ACS reagent, ≥99 %), Ni(NO3)2·6H2O (99.999 %) and 2,2′-oxydiacetic acid (H2ODA, 98 %). All the solutions were prepared immediately before measurements. The compositions of the titrand solutions used in the experiments were as follows: (a) 2 mM Ni^2+ (Co^2+ or VO^2+), 5 mM H2ODA, 5 mM HClO4, (b) 2.5 mM H2ODA (for binary systems). The solutions (Vo = 5.0 mL) were potentiometrically titrated with the standardized 0.098 M NaOH solution or with the standardized 0.025 M Bu4NOH solution (in binary systems) in the pH range from 2.5 to 11.0. The titrant was added to the titrand in increments of 0.01 mL, with a pause of 60 s. Each titration was repeated at least three times in order to check the reproducibility of the data. The stability constants of the complexes were determined using the Hyperquad2008 program. The concentration distribution of various complex species existing in the solution as a function of pH was obtained using the HySS program.
The equilibrium constants defined by Eqs. (1) and (2):1 pM+qL+rH=MpLqHr 2 βpqr=MpLqHr/M^pL^qH^r (where M is VO^2+, Co^2+ or Ni^2+, L denotes the oxydiacetate ion, H is the proton and p, q, r are stoichiometric coefficients for the reaction) were refined by least-squares calculations using the Hyperquad2008 (version 5.2.19) computer program. For the oxovanadium(IV) system, the formation of the hydroxo complexes of VO(IV) were taken into account in the calculations of the stability constants. The following formation constants were taken from the literature and were fixed: logβ 10–1 = −5.94, logβ 20–2 = −6.95 and logβ 10–3 = −18. The equilibrium models presented in Table 2 have given the best fitting of the calculated data to the experimental ones.

Data set [2] relates to Staphylococcus epidermidis. The data set is described as follows: Broth dilution test (MIC, MBC). Type of data set: cell-based. The conditions noted are these: S. epidermidis; for MIC: broth dilution 1–2048 μg/mL. Here is the method: (§1) The antimicrobial activity of complex compounds was assessed against Bacillus subtilis, Escherichia coli, Enterococcus faecalis, Pseudomonas aeruginosa, Staphylococcus aureus, Staphylococcus epidermidis (all strains were from the collection of the Department of Molecular Biology, University of Gdańsk). All bacteria were cultured in the Luria-Bertani (LB) broth at 310.15 K in the air with shaking. LB agar plates were prepared by the supplementation of LB broth with the 1.5 % bacteriological agar. Stock solutions of complex compounds were freshly prepared in the LB broth at the concentration of 25 mg/mL. The antimicrobial activity was assessed with the broth dilution method. The LB broth supplemented with the twofold diluted amount of tested compounds (dilution range 1–2048 μg/mL) was inoculated with 10^6 cfu of bacteria cells per well of 96-well plate. Cultures were incubated at 310.15 K with shaking for 18–20 h in the air, and the bacterial growth was estimated by measuring the optical density at 600 nm with the LB broth as a background control. A minimum inhibitory concentration (MIC) was defined as the lowest concentration of the tested compound (in μg/mL) at which there was no visible growth of bacteria compared to the growth observed for the inoculated LB broth without any supplementation. […] The concentration (in μg/mL) at which no colonies were observed was defined as MBC.
(Broth dilution looks for growth in wells or tubes with falling amounts of substance.)

The test system of data set [3] is Escherichia coli. Description: Broth dilution test (MIC, MBC). The data set is classed as cell-based. The conditions noted are these: E. coli; for MIC: broth dilution 1–2048 μg/mL. Here is the method: as §1
Data set [4] relates to Bacillus subtilis. Description: Broth dilution test (MIC, MBC). The data set is classed as cell-based. The conditions noted are these: B. subtilis, broth dilution 1–2048 μg/mL. Here is the method:
as §1

Data set [5] has as its system Pseudomonas aeruginosa. Description: Broth dilution test (MIC, MBC). To be noted: P. aeruginosa, broth dilution 1–2048 μg/mL. The data set is classed as cell-based. Here is the method: as §1
Data set [6] concerns Enterococcus faecalis. Description: Broth dilution test (MIC, MBC). Type of data set: cell-based. To be noted: E. faecalis; for MIC: broth dilution 1–2048 μg/mL. Here is the method: as §1
For data set [7], the system named is Staphylococcus aureus. The data set is described as follows: Broth dilution test (MIC, MBC). To be noted: S. aureus; for MIC: broth dilution 1–2048 μg/mL. The data set is classed as cell-based. Here is the method:
as §1

Data set [8] has as its system Bacillus subtilis. Description: Disc diffusion test. The data set is classed as cell-based. To be noted: B. subtilis. Here is the method:
The antimicrobial activity of complex compounds was assessed against Bacillus subtilis, Escherichia coli, Enterococcus faecalis, Pseudomonas aeruginosa, Staphylococcus aureus, Staphylococcus epidermidis (all strains were from the collection of the Department of Molecular Biology, University of Gdańsk). All bacteria were cultured in the Luria-Bertani (LB) broth at 310.15 K in the air with shaking. LB agar plates were prepared by the supplementation of LB broth with the 1.5 % bacteriological agar. Stock solutions of complex compounds were freshly prepared in the LB broth at the concentration of 25 mg/mL. Aliquots of 0.05 mL of bacterial culture at the optical density at 600 nm of 0.1 (inoculum 5 × 10^6 cells per plate) were spread on LB agar plates. Sterile filter paper discs (of 6 mm diameter) were impregnated with solutions of complex compounds prepared in the deionized water at the following amounts: 0.1, 0.2, 0.5 and 1.0 mg per disc and placed on agar plates. After an overnight incubation at 310.15 K, zones of bacterial growth inhibition were measured. Neomycin at the amount of 0.1 mg/disc was used as a control.
On the technique in general: A growth-free zone around the sample is the usual read-out of agar diffusion tests.

The mark [9] stands for this setting: PT, 298.15 K, aqueous, hydroxo species.

Where only a bound is given, the exact number is not on record here.

With `O.O.O.O=C(O)COCC(=O)O.[Co]` [Co(ODA), [Co(ODA)(H2O)2]·H2O], the “logβ 110 (species ML), stability constant” value (from here on “logβ 110 (species ML)”) in data set [1] (PT, 298.15 K, aqueous) is given as 3.45 (±0.11). In data set [1] (setting [9]), the “logβ 11–2 (species MLH−2)” value is −14.88 (±0.14). Besides, the results for the minimal bactericidal concentration (MBC) in data set [2], in data set [3] and in data set [7] were 2048 µg/mL, 1024 µg/mL and 512 µg/mL, respectively. Further, the “bacteriostatic or bactericidal activity” value in data set [2], in data set [3] and in data set [7] was “bactericidal activity” in each case. For the same molecule, the MIC was determined as 256 µg/mL in data set [2]; 512 µg/mL in data set [3]; 256 µg/mL in data set [4]; 256 µg/mL in data set [5]; 256 µg/mL in data set [6]; 256 µg/mL in data set [7]. Further, the “Zone of growth inhibition” value in data set [8] (500 μg/disc) is 9 mm; in data set [8] (1000 μg/disc), 11 mm.
For the molecule `O.O.O.O.O.O.O.O.O.O=C([O-])COCC(=O)[O-].O=C([O-])COCC(=O)[O-].[Ni+2].[Ni+2]` [Ni(ODA), [Ni(ODA)(H2O)3]·1.5H2O], the “logβ 110 (species ML)” value in data set [1] (PT, 298.15 K, aqueous) was 3.52 (±0.02). Also, in data set [1] (setting [9]), the “logβ 11–2 (species MLH−2)” value is −14.17 (±0.06). This molecule also gave an MBC in data set [2] of 2048 µg/mL. The “bacteriostatic or bactericidal activity” value in data set [2] is “bactericidal activity”. Besides, the MIC worked out at 512 µg/mL in data set [2]; 1024 µg/mL in data set [3]; 512 µg/mL in data set [4]; 1024 µg/mL in data set [5]; 1024 µg/mL in data set [6]; 1024 µg/mL in data set [7]. The “Zone of growth inhibition” value in data set [8] (500 μg/disc) and in data set [8] (1000 μg/disc) was 8 mm each time.
In the case of `O.O.O=C([O-])COCC(=O)[O-].[O]=[V+2]` [VO(ODA), [VO(ODA)(H2O)2]], the “logβ 110 (species ML)” value in data set [1] (PT, 298.15 K, aqueous) is 5.08 (±0.04). Moreover, the “logβ 11–2 (species MLH−2)” value in data set [1] (setting [9]) is on record as −6.45 (±0.04). The “logβ 22–2 (species M2L2H−2)” value in data set [1] (setting [9]) is on record as 1.65 (±0.15). Further, the “pH at which hydroxo species predominate over the complex” value in data set [1] (species distribution M:L = 1:1 calculated from stability constants) is more than 5.5. Moreover, the minimum bactericidal concentration (MBC) in data set [2] was determined as 2048 µg/mL; in data set [6], 1024 µg/mL; in data set [7] it was 2048 µg/mL. Besides, the “bacteriostatic or bactericidal activity” value in data set [2], in data set [6] and in data set [7] was “bactericidal activity” throughout. The MIC is 2048 µg/mL in data set [2]; 2048 µg/mL in data set [3]; 2048 µg/mL in data set [4]; 1024 µg/mL in data set [5]; 1024 µg/mL in data set [6]; 1024 µg/mL in data set [7]. For the same molecule, the “Zone of growth inhibition” value in data set [8] (1000 μg/disc) was 7 mm.

As usually defined, the MBC is the smallest concentration meeting the test's criterion for killing. The low end stands for greater bactericidal potency, the high end for weaker bactericidal potency. What is called MIC is the lowest concentration that inhibits growth of the organism. Read a low MIC as inhibition by little substance.
